Results on 15 compounds are retold here after BindingDB's records for doi:10.1016/j.bioorg.2013.09.002 (Ewha Womans University, 2013).

Where a SMILES comes first, the peptide text is derived from it. The star is where a group is joined. Cbz = O=C(OCc1ccccc1)*; CH2F = FC*

Assay [1] deals with T1, Calpain-1 catalytic subunit (Homo sapiens, UniProt P07384).
T1 sequence (P07384 whole entry): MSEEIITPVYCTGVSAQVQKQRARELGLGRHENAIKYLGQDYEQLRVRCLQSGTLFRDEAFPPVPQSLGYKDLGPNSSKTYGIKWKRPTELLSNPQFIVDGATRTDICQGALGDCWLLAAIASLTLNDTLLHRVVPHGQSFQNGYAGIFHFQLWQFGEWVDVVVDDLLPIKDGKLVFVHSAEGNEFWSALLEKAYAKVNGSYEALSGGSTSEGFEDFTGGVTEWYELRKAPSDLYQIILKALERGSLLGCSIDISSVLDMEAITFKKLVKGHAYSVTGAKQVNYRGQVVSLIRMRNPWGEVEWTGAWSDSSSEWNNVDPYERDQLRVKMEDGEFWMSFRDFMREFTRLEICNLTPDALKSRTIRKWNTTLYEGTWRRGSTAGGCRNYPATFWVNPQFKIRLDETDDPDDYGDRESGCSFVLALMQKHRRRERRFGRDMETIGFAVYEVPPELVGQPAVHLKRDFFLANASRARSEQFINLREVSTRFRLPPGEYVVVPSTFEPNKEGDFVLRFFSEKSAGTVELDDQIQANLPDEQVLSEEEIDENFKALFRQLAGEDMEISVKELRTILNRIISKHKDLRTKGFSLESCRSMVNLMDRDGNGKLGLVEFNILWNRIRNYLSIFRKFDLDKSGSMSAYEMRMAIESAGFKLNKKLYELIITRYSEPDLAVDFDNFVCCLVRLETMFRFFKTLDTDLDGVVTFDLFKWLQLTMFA
Description: µ-Calpain Inhibition Assay. Particulars: pH 7.5; 25 °C. The procedure:
The reaction was initiated by sequential addition of substrate A, µ-calpain, each compound, and finally a CaCl2 solution. The reaction mixture (100 µL) was incubated at room temperature for 30 min with shaking. Fluorescence intensities were measured at 320 nm excitation and 420 nm emission wavelengths.

The target in assay [2] is T2, Calpain-2 catalytic subunit (Homo sapiens, UniProt P17655).
T2 sequence (P17655 whole entry): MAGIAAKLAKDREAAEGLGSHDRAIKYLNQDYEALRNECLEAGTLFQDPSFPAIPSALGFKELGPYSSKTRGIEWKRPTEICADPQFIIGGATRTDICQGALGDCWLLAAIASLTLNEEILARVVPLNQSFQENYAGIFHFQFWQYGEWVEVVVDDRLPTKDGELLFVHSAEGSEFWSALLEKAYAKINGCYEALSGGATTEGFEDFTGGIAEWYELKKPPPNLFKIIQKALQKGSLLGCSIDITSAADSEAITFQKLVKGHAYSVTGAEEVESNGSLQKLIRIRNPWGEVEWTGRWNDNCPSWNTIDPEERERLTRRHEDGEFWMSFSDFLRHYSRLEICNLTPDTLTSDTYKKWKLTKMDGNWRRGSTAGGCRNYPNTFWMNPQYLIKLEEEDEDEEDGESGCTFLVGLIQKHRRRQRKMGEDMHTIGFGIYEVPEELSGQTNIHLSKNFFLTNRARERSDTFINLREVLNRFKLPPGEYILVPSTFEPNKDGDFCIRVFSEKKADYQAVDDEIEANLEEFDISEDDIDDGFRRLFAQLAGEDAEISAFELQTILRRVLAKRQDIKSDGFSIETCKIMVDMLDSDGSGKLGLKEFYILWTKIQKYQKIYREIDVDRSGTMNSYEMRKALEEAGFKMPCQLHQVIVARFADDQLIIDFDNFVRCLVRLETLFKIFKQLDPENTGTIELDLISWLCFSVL
Description: m-Calpain Inhibition Assay. Particulars: pH 7.5; 25 °C. The method, then: Inhibition of m-calpain was assayed in the reaction buffer (50 mM Tris-HCl, 100 mM NaCl, 5 mM β-mercaptoethanol, and 1 mM EDTA, pH 7.5) with 50 µM substrate B, 5 mM CaCl2 and 2.88 U/mL m-calpain. The reaction was initiated by sequential addition of substrate B, m-calpain, each compound, and finally a CaCl2 solution. The reaction mixture (100 µL) was incubated at room temperature for 30 min with shaking. Fluorescence intensities were measured at 320 nm excitation and 420 nm emission wavelengths. MDL28170 was used as a positive control for µ- and m-calpain inhibition.

For another assay, the target named is Procathepsin L (Homo sapiens, UniProt P07711). Description: Cathepsin L Inhibition Assay. The following applies: pH 5.5; 37 °C. The method, then:
Inhibition of cathepsin L was assayed in reaction buffer (0.1M NaOAc-HCl, 1 mM EDTA, 0.1% β-mercaptoethanol, pH 5.5) containing 20 µM substrate and 4 nM cathepsin L. Z-FR-AMC was used as a substrate for […]. Cathepsin L was activated by incubation in assay buffer at 37 °C for 30 min prior to initiation of the reaction by addition of the substrate and test compound. The reaction mixture was then incubated at room temperature for 30 min with shaking. Fluorescence intensities were measured at 360 nm excitation and 450 nm emission wavelengths.

Chain of Procathepsin L (P07711 whole entry): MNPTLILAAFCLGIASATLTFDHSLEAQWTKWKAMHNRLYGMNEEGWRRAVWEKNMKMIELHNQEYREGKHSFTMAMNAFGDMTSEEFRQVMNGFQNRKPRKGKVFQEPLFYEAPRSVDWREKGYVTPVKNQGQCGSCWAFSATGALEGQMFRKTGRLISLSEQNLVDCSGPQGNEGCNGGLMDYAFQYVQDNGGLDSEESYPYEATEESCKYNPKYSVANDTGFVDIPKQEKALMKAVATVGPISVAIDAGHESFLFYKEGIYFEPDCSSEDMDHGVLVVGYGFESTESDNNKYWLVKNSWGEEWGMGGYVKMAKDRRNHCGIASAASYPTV

With `O=C(/C=C/c1ccco1)c1ccc(O)cc1O` [1-(2,4-Dihydroxyphenyl)-3-(furan-2-yl)propenone (10)], the concentration for half-maximal inhibition (IC50) – broadly, the concentration at which inhibition is half-maximal – came out at 86.7 µM in assay [1], 25.4 µM in assay [2] and 90.5 µM at Procathepsin L.

For the compound `O=C(/C=C/c1ccccn1)c1ccc(O)cc1O` [1-(2,4-Dihydroxyphenyl)-3-(pyridin-2-yl)propenone (8)], the IC50 (in assay [1]; in assay [2]; against Procathepsin L) was more than 100 µM throughout.

On to `O=C(/C=C/c1cccnc1)c1ccc(O)cc1O` [1-(2,4-Dihydroxyphenyl)-3-(pyridin-3-yl)propenone (7)], for which the IC50 (in assay [1]; in assay [2]; against Procathepsin L) was more than 100 µM each time.

Consider `O=C(/C=C/c1ccncc1)c1ccc(O)cc1O` [1-(2,4-Dihydroxyphenyl)-3-(pyridin-4-yl)propenone (6)], for which the IC50 in assay [1] was more than 100 µM; in assay [2] it was more than 100 µM; against Procathepsin L, 44.4 µM.

As for `O=C(/C=C/c1cccs1)c1ccc(O)cc1O` [1-(2,4-Dihydroxyphenyl)-3-(thiophen-2-yl)propenone (9)], the IC50 in assay [1] came out at 56.2 µM; in assay [2], 39.9 µM; at Procathepsin L, 53 µM.

Regarding `O=C(/C=C/c1ccco1)c1cc(O)cc(O)c1` [1-(3,5-Dihydroxyphenyl)-3-(furan-2-yl)propenone (21)], the IC50 (in assay [1]; in assay [2]; against Procathepsin L) was more than 100 µM throughout.

`O=C(/C=C/c1ccoc1)c1cc(O)cc(O)c1` [1-(3,5-Dihydroxyphenyl)-3-(furan-3-yl)propenone (24)]: the IC50 (in assay [1]; in assay [2]; against Procathepsin L) was more than 100 µM in each case.

On to `O=C(/C=C/c1cccs1)c1cc(O)cc(O)c1` [1-(3,5-Dihydroxyphenyl)-3-(thiophen-2-yl)propenone (20)], for which the 50% inhibitory concentration (IC50) (in assay [1]; in assay [2]; against Procathepsin L) was more than 100 µM throughout.

With `O=C(/C=C/c1ccsc1)c1cc(O)cc(O)c1` [1-(3,5-Dihydroxyphenyl)-3-(thiophen-3-yl)propenone (23)], the figures for the IC50 (in assay [1]; in assay [2]; on Procathepsin L) were more than 100 µM, 97.3 µM and more than 100 µM, respectively.

Consider `O=C(/C=C/c1ccccc1)c1cc(O)cc(O)c1` [1-(3,5-Dihydroxyphenyl)-3-phenylpropenone (22)], for which the IC50 (in assay [1]; in assay [2]; at Procathepsin L) was more than 100 µM each time.

For the compound `O=C(/C=C/c1ccc(O)cc1O)c1ccco1` [3-(2,4-Dihydroxyphenyl)-1-(furan-2-yl)propenone (14)], the IC50 in assay [1] is more than 100 µM; in assay [2], more than 100 µM; on Procathepsin L, 2.87 µM.

Take `O=C(/C=C/c1ccc(O)cc1O)c1cccs1` [3-(2,4-Dihydroxyphenyl)-1-(thiophen-2-yl)propenone (13)]: the IC50 was more than 100 µM in assay [1], 60.2 µM in assay [2] and 2.8 µM against Procathepsin L.

In the case of `CCCNC(=O)[C@H]1O[C@@H]1C(=O)N[C@H](C(=O)N1CCC[C@H]1C(=O)O)[C@@H](C)CC` [CA074], the IC50 in assay [1] and in assay [2] was more than 100 µM in each case.

For the compound `O=C(NC(Cc1ccccc1)C(=O)NC(Cc1ccccc1)C(=O)CF)OCc1ccccc1` (stereo not drawn) [benzyl N-[1-[(4-fluoro-3-oxo-1-phenylbutan-2-yl)amino]-1-oxo-3-phenylpropan-2-yl]carbamate] (Cbz-Phe-Phe-CH2F; configuration not given here), the IC50 was 0.397 µM in assay [1] and 0.418 µM in assay [2].

In assay [2], `CC(C)C(NC(=O)OCc1ccccc1)C(=O)NC(C=O)Cc1ccccc1` [benzyl N-[(1S)-2-methyl-1-[(1-oxo-3-phenylpropan-2-yl)carbamoyl]propyl]carbamate] (Cbz-Val-Phe-aldehyde; configuration not given here) registered an IC50 of 0.15 µM.
